Laboratory results as given in patent US12133920B2, “Stabilization of beta-hydroxyisovaleric acid formulations in soft gel capsules” (TSI Group Ltd., priority 2016, dated 2024).

Experiment: Accelerated stability test: HMB-FA contents per capsule
Assay type: physicochemical
Details: for HMB FA contents: 40±2° C., 75% RH±5% RH, sealed HDPE bottles, HMB-FA 75 wt %, betaine anhydrous 18 wt %, purified water 7 wt %
Experimental: Accelerated Stability Test: To assess how the quality and purity of the instantly disclosed composition would vary with time under the influence of environmental factors of temperature and humidity, accelerated stability tests were performed. Tests were carried out according to guidelines provided in Stability Testing of New Drug Substances and Products issued by ICH and Stability testing guideline of dietary supplements by NSF. NSF Stability Testing Working Group, Stability testing guideline of dietary supplements, January 2011. […] The gel capsule composition was HMB-FA 75 wt %; betaine anhydrous 18 wt % and purified water 7 wt %. Samples were repacked in HDPE bottles (size: 1 80 ct, 300 rnl) then sealed with aluminum foil. Samples were exposed to high temperature and high humidity (40±2° C.; 75% RH±5% RH) and evaluated at 1, 2, and 3 months.

- HMB FA contents (0 months): 519 mg/capsule
- HMB FA contents (1 month): 494.4 mg/capsule
- HMB FA contents (2 months): 484.8 mg/capsule
- HMB FA contents (3 months): 491.8 mg/capsule
- stability of HMB FA (overall) (high heat high humidity environments, periods exceeding three months): substantially stable
SMILES: CC(C)(O)CC(=O)O [HMB FA, Beta-hydroxyisovaleric acid]
